Assay results published in paper PMC5182133 (Cell chemical biology, 2016).

Tests used:
[1] = molecular target: T1, DCK (Homo sapiens, UniProt P27707); assay: Affinity matrix pulldown and immunoblot for DCK; type: binding; settings: CAL-51 lysate
[2] = molecular target: T2, H6PD (Homo sapiens, UniProt O95479); assay: Affinity matrix pulldown and immunoblot for H6PD; type: binding; settings: CAL-51 lysate; competed with 20 μM free rucaparib
T2 sequence (O95479 20-791): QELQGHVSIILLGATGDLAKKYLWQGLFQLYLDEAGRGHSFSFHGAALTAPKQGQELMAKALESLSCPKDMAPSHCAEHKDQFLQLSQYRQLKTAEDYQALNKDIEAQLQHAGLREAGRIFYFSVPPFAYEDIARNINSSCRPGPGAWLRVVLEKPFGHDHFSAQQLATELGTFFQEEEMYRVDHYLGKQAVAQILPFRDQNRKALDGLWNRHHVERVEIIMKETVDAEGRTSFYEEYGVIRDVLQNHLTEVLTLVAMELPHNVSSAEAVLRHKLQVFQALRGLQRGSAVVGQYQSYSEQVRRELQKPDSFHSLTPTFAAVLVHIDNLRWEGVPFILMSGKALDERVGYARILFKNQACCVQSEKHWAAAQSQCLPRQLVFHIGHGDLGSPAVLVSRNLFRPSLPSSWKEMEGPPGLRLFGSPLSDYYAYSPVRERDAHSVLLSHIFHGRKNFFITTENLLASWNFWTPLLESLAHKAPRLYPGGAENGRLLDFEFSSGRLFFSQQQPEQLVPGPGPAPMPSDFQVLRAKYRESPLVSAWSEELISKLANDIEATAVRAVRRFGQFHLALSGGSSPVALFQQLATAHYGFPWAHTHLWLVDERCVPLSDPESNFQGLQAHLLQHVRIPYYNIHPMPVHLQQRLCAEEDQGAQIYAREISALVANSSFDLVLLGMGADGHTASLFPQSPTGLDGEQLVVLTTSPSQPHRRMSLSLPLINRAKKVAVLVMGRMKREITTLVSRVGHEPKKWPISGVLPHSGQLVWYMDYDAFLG

[3] = ref Haura et al., 2010; cited from earlier work
[4] = molecular target: T2, H6PD; settings: read-out: IC50 for H6PD inhibition (reported); ref Tagawa et al., 2015; cited from earlier work
[5] = system: A549 cells; settings: 2 μM cytarabine, 3 days
[6] = molecular target: T1, DCK; settings: compared to the other PARPi
[7] = system: CAL-51 shH6PD cells; assay: Cell viability in CAL-51 shNT vs shH6PD cells; type: cell-based; settings: CAL-51 shH6PD vs shNT, 5 d
[8] = system: CAL-51 H6PD-OE cells; assay: Cell viability in CAL-51 parental vs H6PD-overexpressing cells; type: cell-based; settings: CAL-51 H6PD-OE vs parental, 5 d
[9] = system: CAL-51 cells; assay: Immunoblot of apoptosis markers in CAL-51 cells after PARPi treatment; type: cell-based; settings: 48 h, 40 μM PARPi
[10] = system: H322 cells; assay: H322 cell viability; type: cell-based; settings: 5 d, CellTiterGlo
[11] = ref Plummer et al., 2008; cited from earlier work
[12] = reach as high as; ref Murray et al., 2014; cited from earlier work

T1 sequence (P27707 whole entry): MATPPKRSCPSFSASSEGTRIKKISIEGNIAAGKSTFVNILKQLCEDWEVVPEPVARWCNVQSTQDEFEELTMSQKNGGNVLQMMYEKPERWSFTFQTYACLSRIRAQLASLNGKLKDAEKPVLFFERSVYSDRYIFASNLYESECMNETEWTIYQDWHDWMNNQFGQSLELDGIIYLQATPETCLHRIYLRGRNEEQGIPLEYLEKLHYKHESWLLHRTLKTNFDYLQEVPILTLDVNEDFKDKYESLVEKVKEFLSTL

With `NCCCN1CCC[C@@H](c2ccc(-n3cc4cccc(C(N)=O)c4n3)cc2)C1` [c-niraparib] the “Enrichment of DCK by affinity matrix (immunoblot)” value [1] was “confirmed”.
With `CN(CCCN)Cc1ccc(-c2[nH]c3cc(F)cc4c3c2CCNC4=O)cc1` [c-rucaparib] the “Enrichment of H6PD by affinity matrix (immunoblot)” value [2] was “specifically enriched”.
For `COc1cc2ncnc(Nc3ccc(F)c(Cl)c3)c2cc1OCCCN1CCOCC1` [gefitinib], the “Drug concentration in human tumor tissue relative to plasma levels” value [3] is listed as “up to 40 fold”.
In the case of `O=c1c(-c2ccc(O)cc2)coc2cc(O)cc(O)c12` [genistein], the IC50 [4] is given as greater than 50 µM.
For `NC(=O)c1cccc2cn(-c3ccc([C@@H]4CCCNC4)cc3)nc12` [niraparib], the “Rescue of A549 cells from cytarabine toxicity” value ([5]; DI-39 as positive control) was “dose-dependently rescued”, the “Concentrations needed to observe reduced cytarabine toxicity” value ([5]; A549 cells) was 20 to 40 µM and the “Inhibition of DCK activity in cell-free extracts” value [6] was “specific inhibition”.
With `O=C(c1cc(Cc2n[nH]c(=O)c3ccccc23)ccc1F)N1CCN(C(=O)C2CC2)CC1` [olaparib] the “Effect of stable H6PD knockdown on potency (cell viability)” value [7] was “increased the potency”.
With `CNCc1ccc(-c2[nH]c3cc(F)cc4c3c2CCNC4=O)cc1` [rucaparib] the “Effect of stable H6PD overexpression on IC50 for inhibition of cell viability” value [8] was “increased the IC50”, the “PARP1 and caspase-3 cleavage compared to the other PARPi” value [9] was “increased” and the “Viability of H322 cells at high concentrations compared to other PARPi” value [10] was “decreased more”. The “Plasma levels in patients” value [11] was 2700 nM and the “Concentrations in murine tumors” value [12] was ~ 20 μM.
With `Cn1ncnc1[C@H]1c2n[nH]c(=O)c3cc(F)cc(c23)N[C@@H]1c1ccc(F)cc1` [talazoparib] the “Effect of stable H6PD knockdown on potency (cell viability)” value [7] was “increased the potency”.
